According to patent publication US9949976B2, “Kinase inhibitor and use thereof” (Sihuan Pharmaceutical Holdings Group Ltd., priority 2013, dated 2018):

Columns and labels:
Assay in all cases: BrdU cell proliferation assay (PerkinElme kit)
Format in all cases: cell-based
[1] = test system: JeKo-1 lymphoma cell; conditions: Homo sapiens, JeKo-1, 48 h; read-out: In vitro cell-inhibiting activity IC50 JeKo-1
Description: (§1) Experimental method: cell proliferation assay was carried out by BrdU method (BrdU cell proliferation assay kit, PerkinElme Company).
(§2) Preparation of gradient dilution solutions of test compound: the stock solution containing 5 mM test compound was diluted by DMSO to prepare a 2 mM solution, then was subjected to 4-fold stepwise dilution to 9 concentration gradients.
(§3) (1) Cells grown to exponential growth phase were digested with pancreatin, and centrifuged to collect the cells. The adherent cells were re-suspended in the corresponding culture medium, counted, and seeded to a 96-well plate; H358 cells and SW780 cells were seeded at 4000 cells/well/100 μL; PC3 cells were seeded at 1500 cells/well/100 μL; H441 cells were seeded at 6000 cells/well/100 μL. The plates were placed in a cell incubator at 37° C. After the cells adhered to the wall, the medium was replaced by serum-free medium. The suspended cells MV-4-11 and JeKo-1 were re-suspended with serum-free medium, counted, seeded to a 96-well plate by 10000 cells/well/100 μL and placed in a cell incubator overnight at 37° C. with 5% CO2.
(§4) (2) To each well, 99 μL growth medium containing 2×FBS was added, then 1 μL diluted 200× test compound was added to the well. The final concentration of the test compound was 10000, 2500, 625, 156.25, 39.06, 9.77, 2.44, 0.61, 0.15 or 0 nM, and the cells were cultured for 48 h at 37° C.
(§5) (3) To each well, 2 μL 100-fold BrdU labelled solution was added, and the culture medium was sucked by a vacuum pump after incubation in a cell incubator overnight and equilibrated at room temperature for 0.5 h.
(§6) (4) To each well, 100 μL fixing solution was added; the solution was discarded after incubation for 30 min at room temperature.
(§7) (5) To each well, 100 μL 1-fold BrdU-Eu detection antibody solution was added, the solution was discarded after incubation for 1 h at room temperature, and the well was washed with 1-fold washing liquor at 250 μL/well for 5 times.
(§8) (6) To each well, 200 μL of DELFIA Inducer was added and incubated for 15 min at room temperature. Value of fluorescence (Flu) was measured by ELISA instrument
(§9) (2) The data was processed by GraphPad Prism 6 software to get a curve and IC50 values.

[2] = test system: PC3 prostatic cancer cell; conditions: 48 h; read-out: In vitro cell-inhibiting activity IC50 PC3
Description: as §1, §2, §3, §4, §5, §6, §7, §8, §9

[3] = test system: H441 lung cancer cell; conditions: Homo sapiens, NCI-H441, 48 h; read-out: In vitro cell-inhibiting activity IC50 H441
Description: as §1, §2, §3, §4, §5, §6, §7, §8, §9

[4] = test system: H358 lung cancer cell; conditions: Homo sapiens, NCI-H358, 48 h; read-out: In vitro cell-inhibiting activity IC50 H358
Description: as §1, §2, §3, §4, §5, §6, §7, §8, §9

[5] = test system: SW780 bladder cancer cell; conditions: Homo sapiens, SW780, 48 h; read-out: In vitro cell-inhibiting activity IC50 SW780
Description: as §1, §2, §3, §4, §5, §6, §7, §8, §9

`CCN1CCN(Cc2cnc(Nc3cc(-c4cc(F)c5nc(C)n(C(C)C)c5c4)c(F)cn3)nc2)CC1` [Compound 1, 5-((4-ethylpiperazin-1-yl)methyl)-N-(5-fluoro-4-(4-fluoro-1-isopropyl-2-methyl-1H-benzo[d]imidazol-6-yl)pyridin-2-yl)pyrimidin-2-amine] was tested, and the IC50 [1] was 37 nM, the IC50 [2] was 260 nM and the IC50 [3] was 148 nM. For the same molecule, the IC50 [4] was 291 nM and the IC50 [5] was 162 nM.
